The results in this text go back to ChEMBL document CHEMBL1221241, “Discovery of tetrahydroisoquinoline (THIQ) derivatives as potent and orally bioavailable LFA-1/ICAM-1 antagonists” (Bioorg Med Chem Lett, 2010).

One may read the IC50 as the concentration at which inhibition is half-maximal. One may read the half-life as the time in which the quantity being followed falls by half. As a reminder, the ED50 is the midpoint of the dose-response relation. Read a low ED50 as greater potency. The term AUC denotes the area under the concentration-time curve, a measure of exposure. High values mean more exposure, low ones less exposure. As usually defined, the Papp B→A is how fast a substance crosses the layer from the basolateral side. What is called clearance is the rate of elimination divided by the concentration. Read a low clearance as inefficient removal. As usually defined, the Papp A→B is the apparent permeability from the apical to the basolateral side of a cell layer. A word on the Tmax: it is the time from dosing to the highest level. Broadly, the Cmax is the highest concentration seen after dosing. One may read the bioavailability as dose-corrected exposure relative to a reference, in per cent. A word on the AUC(0-t): it is the area under the concentration-time curve up to a stated or last time point. A high value points to more exposure.

The target in data set [1] is Intercellular adhesion molecule (ICAM-1), Integrin alpha-L/beta-2 (Homo sapiens, UniProt P05107+P05362+P20701). Nature of the data set: Inhibition of LFA1/ICAM1 interaction in human Hut-78 cells by cell migration assay. The class given is cell-based.
Data set [2] is described as follows: Half life in Sprague-Dawley rat at 5 mg/kg, iv. The arrangement: dose 5 mg/kg, route intravenous. As to conditions: in vivo. The class given is ADME, organism-based.
Data set [3] concerns Mus musculus. Nature of the data set: Reduction of neutrophil migration in iv dosed thioglycollate-induced C57BL/6 mouse peritonitis model administered 15 mins before thioglycollate challenge measured after 4 hrs. The class given is functional.
A short description of data set [4]: AUC in Sprague-Dawley rat at 5 mg/kg, iv. The class given is ADME, organism-based. Also noted: dose 5 mg/kg, route intravenous. As to conditions: plasma.
Data set [5] in a line: Apparent permeability of the compound from basolateral to apical side in MDCK cells. It counts as ADME, cell-based, Canis lupus familiaris. As to conditions: dog.
Data set [6] can be described thus: Clearance in Sprague-Dawley rat at 5 mg/kg, iv. It counts as ADME, organism-based. Also noted: dose 5 mg/kg, route intravenous. The following applies: in vivo.
Data set [7] is described as follows: Apparent permeability of the compound from apical to basolateral side in MDCK cells. It counts as ADME, cell-based, Canis lupus familiaris. As to conditions: dog.
Data set [8] in a line: Tmax in C57BL/6 mouse at 20 mg/kg, po. It counts as ADME, organism-based. Also noted: dose 20 mg/kg, route oral. As to conditions: in vivo.
A short description of data set [9]: Cmax in C57BL/6 mouse at 20 mg/kg, po. The class given is ADME, organism-based. Also noted: dose 20 mg/kg, route oral. As to conditions: in vivo.
Data set [10] in a line: Oral bioavailability in C57BL/6 mouse at 20 mg/kg. The class given is ADME, organism-based. As to conditions: in vivo.
Data set [11] can be described thus: Oral bioavailability in Sprague-Dawley rat at 20 mg/kg. As to conditions: in vivo. It counts as ADME, organism-based.
A short description of data set [12]: Cmax in Sprague-Dawley rat at 20 mg/kg, po. Also noted: dose 20 mg/kg, route oral. The class given is ADME, organism-based. As to conditions: in vivo.
Data set [13] can be described thus: Oral bioavailability in Sprague-Dawley rat at 100 mg/kg. The class given is ADME, organism-based. As to conditions: in vivo.
Data set [14] deals with Mus musculus. Briefly: Reduction of neutrophil migration in po dosed thioglycollate-induced C57BL/6 mouse peritonitis model administered 15 mins before thioglycollate challenge measured after 4 hrs. It counts as functional.
A short description of data set [15]: Tmax in C57BL/6 mouse at 100 mg/kg, po. It counts as ADME, organism-based. Also noted: dose 100 mg/kg, route oral. As to conditions: in vivo.
Data set [16] can be described thus: Cmax in C57BL/6 mouse at 100 mg/kg, po. It counts as ADME, organism-based. Also noted: dose 100 mg/kg, route oral. The following applies: in vivo.
Data set [17] in a line: Tmax in Sprague-Dawley rat at 20 mg/kg, po. As to conditions: in vivo. It counts as ADME, organism-based. The arrangement: dose 20 mg/kg, route oral.
Data set [18] in a line: AUClast in Sprague-Dawley rat at 20 mg/kg, po. It counts as ADME, organism-based. Also noted: time 0 - last, dose 20 mg/kg, route oral. The following applies: plasma.
Data set [19] is described as follows: AUClast in C57BL/6 mouse at 100 mg/kg, po. As to conditions: plasma. It counts as ADME, organism-based. The arrangement: time 0 - last, dose 100 mg/kg, route oral.
A short description of data set [20]: AUClast in C57BL/6 mouse at 20 mg/kg, po. The class given is ADME, organism-based. The arrangement: time 0 - last, dose 20 mg/kg, route oral. The following applies: plasma.

Chain of Intercellular adhesion molecule (ICAM-1), Integrin alpha-L/beta-2 (P20701 whole entry): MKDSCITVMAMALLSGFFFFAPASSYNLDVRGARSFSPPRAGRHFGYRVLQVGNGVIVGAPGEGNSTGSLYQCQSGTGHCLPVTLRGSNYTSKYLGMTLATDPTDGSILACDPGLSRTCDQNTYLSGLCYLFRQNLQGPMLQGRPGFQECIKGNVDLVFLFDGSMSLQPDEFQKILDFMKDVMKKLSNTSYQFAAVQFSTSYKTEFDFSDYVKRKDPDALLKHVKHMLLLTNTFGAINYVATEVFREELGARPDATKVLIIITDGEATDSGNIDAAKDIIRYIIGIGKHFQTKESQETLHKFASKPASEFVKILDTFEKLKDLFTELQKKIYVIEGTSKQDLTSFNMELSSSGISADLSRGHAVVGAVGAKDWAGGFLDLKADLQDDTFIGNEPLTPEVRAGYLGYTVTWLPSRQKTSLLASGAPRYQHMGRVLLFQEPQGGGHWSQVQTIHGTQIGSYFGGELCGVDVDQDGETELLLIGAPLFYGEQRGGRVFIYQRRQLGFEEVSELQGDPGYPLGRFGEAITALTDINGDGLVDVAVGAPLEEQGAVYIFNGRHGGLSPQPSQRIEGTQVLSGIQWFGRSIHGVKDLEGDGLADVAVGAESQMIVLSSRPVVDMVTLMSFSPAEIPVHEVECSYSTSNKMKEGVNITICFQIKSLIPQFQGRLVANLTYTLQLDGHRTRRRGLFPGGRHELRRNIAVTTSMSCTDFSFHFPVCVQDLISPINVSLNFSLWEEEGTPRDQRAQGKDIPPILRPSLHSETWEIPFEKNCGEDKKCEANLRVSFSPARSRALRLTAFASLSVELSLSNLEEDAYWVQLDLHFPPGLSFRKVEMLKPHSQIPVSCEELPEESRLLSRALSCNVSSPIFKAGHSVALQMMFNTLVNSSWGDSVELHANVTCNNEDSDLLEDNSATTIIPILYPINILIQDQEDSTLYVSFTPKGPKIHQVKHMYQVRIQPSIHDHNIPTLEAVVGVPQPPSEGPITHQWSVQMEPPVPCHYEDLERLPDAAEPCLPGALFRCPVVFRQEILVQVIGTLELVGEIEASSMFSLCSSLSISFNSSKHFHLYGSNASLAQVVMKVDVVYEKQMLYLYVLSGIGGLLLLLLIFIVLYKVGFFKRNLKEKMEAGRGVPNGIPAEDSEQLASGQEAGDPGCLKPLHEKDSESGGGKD
Chain of Intercellular adhesion molecule (ICAM-1), Integrin alpha-L/beta-2 (P05362 whole entry): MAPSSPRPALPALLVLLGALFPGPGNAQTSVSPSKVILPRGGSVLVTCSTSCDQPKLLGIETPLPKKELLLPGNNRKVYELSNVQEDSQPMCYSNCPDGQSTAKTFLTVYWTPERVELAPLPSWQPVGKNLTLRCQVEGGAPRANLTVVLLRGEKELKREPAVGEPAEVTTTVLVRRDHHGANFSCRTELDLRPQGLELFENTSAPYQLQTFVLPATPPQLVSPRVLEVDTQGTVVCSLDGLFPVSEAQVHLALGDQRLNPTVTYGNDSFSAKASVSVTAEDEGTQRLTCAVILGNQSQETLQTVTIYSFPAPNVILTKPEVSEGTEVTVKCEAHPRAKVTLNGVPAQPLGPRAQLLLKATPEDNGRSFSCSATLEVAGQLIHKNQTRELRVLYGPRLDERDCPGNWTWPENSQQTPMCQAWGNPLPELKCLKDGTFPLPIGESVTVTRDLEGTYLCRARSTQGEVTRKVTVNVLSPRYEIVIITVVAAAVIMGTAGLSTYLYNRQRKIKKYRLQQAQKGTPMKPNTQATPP
Chain of Intercellular adhesion molecule (ICAM-1), Integrin alpha-L/beta-2 (P05107 whole entry): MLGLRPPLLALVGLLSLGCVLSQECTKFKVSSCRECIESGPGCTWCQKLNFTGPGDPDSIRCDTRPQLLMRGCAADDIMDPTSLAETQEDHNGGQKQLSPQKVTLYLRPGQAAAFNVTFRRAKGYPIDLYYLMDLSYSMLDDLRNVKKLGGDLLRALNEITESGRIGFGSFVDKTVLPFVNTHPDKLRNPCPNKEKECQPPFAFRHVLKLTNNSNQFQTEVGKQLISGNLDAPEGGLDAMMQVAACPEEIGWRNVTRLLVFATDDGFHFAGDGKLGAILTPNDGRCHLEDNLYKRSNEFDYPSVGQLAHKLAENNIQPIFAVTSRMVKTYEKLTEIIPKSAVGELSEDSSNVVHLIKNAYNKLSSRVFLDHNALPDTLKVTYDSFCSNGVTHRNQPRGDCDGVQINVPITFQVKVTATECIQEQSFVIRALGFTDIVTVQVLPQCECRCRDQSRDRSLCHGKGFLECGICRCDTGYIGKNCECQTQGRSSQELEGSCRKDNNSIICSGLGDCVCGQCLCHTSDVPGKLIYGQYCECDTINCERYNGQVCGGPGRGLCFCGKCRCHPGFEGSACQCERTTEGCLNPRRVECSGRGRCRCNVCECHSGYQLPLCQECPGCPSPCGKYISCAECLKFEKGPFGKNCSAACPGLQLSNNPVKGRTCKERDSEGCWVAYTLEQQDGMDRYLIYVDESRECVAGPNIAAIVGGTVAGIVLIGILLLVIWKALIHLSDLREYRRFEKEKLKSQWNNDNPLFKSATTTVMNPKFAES

In the case of `O=C(NC[C@H](NC(=O)c1c(Cl)cc2c(c1Cl)CCN(C(=O)c1ccc(Cl)cc1)C2)C(=O)O)c1ccco1`, half-maximal inhibition in data set [1] (IC50) was put at 51 nM. In other words, the double-digit nanomolar range.

For `O=C(NC[C@H](NC(=O)c1c(Cl)cc2c(c1Cl)CCN(C(=O)/C=C/c1ccco1)C2)C(=O)O)c1cccs1`, the IC50 in data set [1] was 25 nM.

With `O=C(NC[C@H](NC(=O)c1c(Cl)cc2c(c1Cl)CCN(C(=O)c1ccc3ccoc3c1)C2)C(=O)O)c1cccs1`, the half-life in [2] was 3 h. The same molecule gave a half-inhibitory concentration (IC50) in data set [1] of 9 nM. Also, the Activity result in data set [3] is “Dose-dependent effect”. The molecule further registered an ED50 in [3] (C57BL/6, iv) of 0.038 mg/kg. In addition, the AUC in data set [4] worked out at 5500 ng·h/mL. For the same molecule, the Papp B→A in [5] came to 0.3 ×10⁻⁶ cm/s. Moreover, the clearance in data set [6] stood at 3.2 mL/min/kg. Besides, in data set [7], the Papp A→B was determined as 0.34 ×10⁻⁶ cm/s.

In data set [2], `O=C(NC[C@H](NC(=O)c1c(Cl)cc2c(c1Cl)CCN(C(=O)c1ccc(Cl)cc1)C2)C(=O)O)c1cccs1` gave a half-life of 1.4 h. The same molecule returned a 50% inhibitory concentration (IC50) in [1] of 22 nM. In [4], this molecule came in with an AUC of 580 ng·h/mL. In data set [6], this molecule registered a clearance of 31 mL/min/kg.

In data set [1], `Cc1ccccc1C(=O)N1CCc2c(cc(Cl)c(C(=O)N[C@@H](CNC(=O)c3cccs3)C(=O)O)c2Cl)C1` gave an IC50 of 460 nM.

Consider `Cc1cccc(C(=O)N2CCc3c(cc(Cl)c(C(=O)N[C@@H](CNC(=O)c4cccs4)C(=O)O)c3Cl)C2)c1`, for which the IC50 in data set [1] stood at 90 nM.

Consider `CC(=O)NC[C@H](NC(=O)c1c(Cl)cc2c(c1Cl)CCN(C(=O)c1ccc(Cl)cc1)C2)C(=O)O`, for which the midpoint of inhibition in data set [1], the IC50, lay at 620 nM.

In turn, `O=C(NC[C@H](NC(=O)c1c(Cl)cc2c(c1Cl)CCN(C(=O)c1ccc(Cl)cc1)C2)C(=O)O)c1ccccc1` had a half-life in data set [2] of 0.7 h. Besides, inhibition in data set [1] was half-maximal at 29 nM (IC50). The molecule further came in with an AUC in data set [4] of 487 ng·h/mL. Besides, in data set [6], the clearance was above 60 mL/min/kg.

Take `O=C(NC[C@H](NC(=O)c1c(Cl)cc2c(c1Cl)CCN(C(=O)c1cccc(Cl)c1)C2)C(=O)O)c1cccs1`: in data set [2], the half-life was 1.1 h. Also, the 50% inhibitory concentration (IC50) in [1] came to 66 nM. Also, the area under the curve (AUC) in data set [4] was found to be 120 ng·h/mL. The clearance in data set [6] is above 60 mL/min/kg.

For `Cc1ccc(C(=O)N2CCc3c(cc(Cl)c(C(=O)N[C@@H](CNC(=O)c4cccs4)C(=O)O)c3Cl)C2)cc1`, in data set [1], the IC50 came to 10 nM.

On to `O=C(N[C@@H](Cc1c[nH]c2ccccc12)C(=O)O)c1c(Cl)cc2c(c1Cl)CCN(C(=O)c1ccc(Cl)cc1)C2`, for which half-maximal inhibition in data set [1] (IC50) required 810 nM.

Consider `O=C(N[C@@H](Cc1cccc(O)c1)C(=O)O)c1c(Cl)cc2c(c1Cl)CCN(C(=O)c1ccc(Cl)cc1)C2`, for which the concentration for half-maximal inhibition (IC50) in data set [1] was above 1000 nM.

Turning to `CC(=O)N1CCc2c(cc(Cl)c(C(=O)N[C@@H](CNC(=O)c3cccs3)C(=O)O)c2Cl)C1`, in data set [1], the IC50 is above 1000 nM.

`O=C(NC[C@H](NC(=O)c1c(Cl)cc2c(c1Cl)CCN(C(=O)C1CCCCC1)C2)C(=O)O)c1cccs1`: the IC50 in [1] was above 1000 nM.

In turn, `O=C(NC[C@H](NC(=O)c1c(Cl)cc2c(c1Cl)CCN(C(=O)c1ccccc1)C2)C(=O)O)c1cccs1` registered an IC50 in data set [1] of 79 nM.

In data set [1], `O=C(N[C@@H](CNC(=O)C1CCCCC1)C(=O)O)c1c(Cl)cc2c(c1Cl)CCN(C(=O)c1ccc(Cl)cc1)C2` had an IC50 of 540 nM.

Take `CCOC(=O)[C@H](CNC(=O)c1cccs1)NC(=O)c1c(Cl)cc2c(c1Cl)CCN(C(=O)c1ccc3ccoc3c1)C2`: the Tmax in data set [8] is 0.8 h; in data set [15] it was 1 h; in data set [17], 0.8 h. For the same molecule, the Cmax in data set [9] was found to be 2120 ng/mL; in data set [12], 3400 ng/mL; in data set [16] it was 8460 ng/mL. The figures for the bioavailability in [10], in [11] and in data set [13] were 27%, 18% and 31%, respectively. Also, the half-life in data set [2] is 2.8 h. The Activity result in [14] is “Dose-dependent effect”. Also, in data set [14] (C57BL/6, po), the ED50 was 6.4 mg/kg. This molecule also yielded an AUC in data set [4] of 16800 ng·h/mL. Further, the apparent permeability from basolateral to apical (Papp B→A) in data set [5] came out at 10 ×10⁻⁶ cm/s. The molecule further had a clearance in [6] of 5 mL/min/kg. Also, the AUC(0-t) came to 13900 ng·h/mL in [18], 31900 ng·h/mL in [19] and 5540 ng·h/mL in data set [20]. Besides, the Papp A→B in data set [7] was 8.5 ×10⁻⁶ cm/s.

Turning to `O=C(NC[C@H](NC(=O)c1c(Cl)cc2c(c1Cl)CCN(C(=O)c1ccc3c(c1)OCC3)C2)C(=O)O)c1cccs1`, the half-life in data set [2] was 1.1 h. For the same molecule, in data set [1], the IC50 turned out to be 13 nM. In addition, in data set [4], the AUC came out at 4870 ng·h/mL. The same molecule yielded a clearance in data set [6] of 19 mL/min/kg.

Consider `O=C(NC[C@H](NC(=O)c1c(Cl)cc2c(c1Cl)CCN(C(=O)c1cc3ccccc3o1)C2)C(=O)O)c1cccs1`, for which, in [2], the half-life is 1.5 h. The IC50 in [1] came out at 5 nM. The molecule further registered an AUC in data set [4] of 1260 ng·h/mL. Also, the clearance in [6] is above 60 mL/min/kg.

For the molecule `NC[C@H](NC(=O)c1c(Cl)cc2c(c1Cl)CCN(C(=O)c1ccc(Cl)cc1)C2)C(=O)O`, in data set [1], the IC50 was above 1000 nM.
